Measurements reported in patent publication US20250066329A1, “PIPERIDINYLPYRIDINYLCARBONITRILE DERIVATIVES AS INHIBITORS OF GLUTAMINYL-PEPTIDE CYCLOTRANSFERASE AND GLUTAMINYL-PEPTIDE CYCLOTRANSFERASE LIKE PROTEIN” (Boehringer Ingelheim International GmbH, priority 2023, published 2025).
Where two headings read alike, the source gives them in different places.

Tests used:
[1] = Assay C: permeability in CACO-2 cells; format: in vitro ADME; settings: human, pH 7.2; for efflux ratio at 2 h: Caco-2, permeability B-A/permeability A-B; for Papp A→B at 2 h: Caco-2, apical to basolateral
Procedure: Caco-2 cells (1-2×10^5 cells/1 cm^2 area) are seeded on filter inserts (Costar transwell polycarbonate or PET filters, 0.4 µm pore size) and cultured (DMEM) for 10 to 25 days. Compounds are dissolved in appropriate solvent (like DMSO, 1-20 mM stock solutions). […] The transport solution (TL) is applied to the apical or basolateral donor side for measuring A-B or B-A permeability (3 filter replicates), respectively. Samples are collected at the start and end of experiment from the donor and at various time intervals for up to 2 hours also from the receiver side for concentration measurement by HPLC-MS/MS or scintillation counting. Sampled receiver volumes are replaced with fresh receiver solution.
Efflux ratio (ER)=permeability B-A/permeability A-B

[2] = system: SIRPα signalling induced by Raji cells; test: Assay B: SIRPα signalling assay using Raji cells; format: cell-based; settings: Homo sapiens, read-out: Inhibition of SIRPα signalling induced by Raji cells: IC50
Procedure: (§1) Two cell types are independently used: the Raji cell line (lymphoblast-like human cell line derived from B lymphocytes from a Burkitt's lymphoma patient in 1963) and A549 cells (adenocarcinomic human alveolar basal epithelial cells).
(§2) Test compounds were dissolved in 100% DMSO and serially diluted into a white 384-well microtiter cell culture plate (PerkinElmer #60076780 in case of Raji assay; PDL-coated plates Greiner #781945 in case of A549 assay). 5000 Raji cells (ATCC #CC86) or 5000 A549 cells (ATCC #CCL-185) in Assay Complete Cell Plating reagent 30 (DiscoverX 93-0563R30B) were added per well. The assay plate was incubated for 48 h at 37° C., 95% humidity and 5% CO2. 15000 reporter cells (Jurkat PathHunter SIRPαV1, DiscoverX #93-1135C19) were added to each well, and the plate was incubated for 5 h at 37° C., 95% humidity and 5% CO2. Bioassay reagent 1 of the PathHunter Bioassay detection kit (DiscoverX 93-0001) was added to each well of the plate using a multichannel pipette followed by a 15 min incubation at room temperature. Afterwards bioassay reagent 2 was added followed by 60 min incubation at room temperature (incubation in the dark). The analysis of the data was performed using the luminescence signal generated by beta-galactosidase in the PathHunter reporter cell line. The luminescence measurement was done using a Pherastar Multi-Mode Reader. Dose-response curves & IC50 data were calculated with 4-parameter sigmoidal dose response formula.

QPCT = biological target: T1, QPCT (Homo sapiens, UniProt Q16769); test: Assay A: biochemical QPCT activity assay (MALDI-TOF MS, CD47 peptide substrate); settings: 0.5 nM enzyme, 20 μM CD47 peptide substrate; read-out: Inhibition of QPCT: IC50
T1 construct: purchased Origine (OriGene) TP700028
Procedure: (§3) QPCT or QPCTL dependent conversion of N-terminal glutamine to pyroglutamate of CD47 was monitored via MALDI-TOF MS. Test compounds were dissolved in 100% DMSO and serially diluted into clear 1,536-well microtiter plates. Enzymatic reactions were set up in assay buffer containing 20 mM Tris pH 7.5, 0.1 mM TCEP, 0.01% BSA, and 0.001% Tween20. […] The plates were incubated for 10 min in a humidified incubator at 24° C. Subsequently, 2.5 μL of CD47 peptide substrate surrogate (^19[…]^33) was added to each well (final concentration: 10 μM for QPCTL/20 μM for QPCT). The plates were mixed for 30 sec at 1,000 rpm and subsequently incubated for 40 min in a humidified incubator at 24° C. […] The plates were sealed with an adhesive foil, mixed for 30 s at 1,000 rpm and stored at room temperature until preparation of the MALDI target plates. […] QPCT or QPCTL activity was monitored by calculating the ratio between product and internal standard signals followed by normalization to high (100% activity) and low (0% activity) controls. Determination of compound potencies was obtained by fitting the dose-response data to a four-parameter logistical equation.

[3] = system: SIRPα signalling induced by A549 cells; test: Assay B: SIRPα signalling assay using A549 cells; format: cell-based; settings: Homo sapiens, read-out: Inhibition of SIRPα signalling induced by A549 cells: IC50
Procedure: as §1, §2

QPCTL = biological target: T2, QPCTL (Homo sapiens, UniProt Q9NXS2); test: Assay A: biochemical QPCTL activity assay (MALDI-TOF MS, CD47 peptide substrate); settings: 0.5 nM enzyme, 10 μM CD47 peptide substrate; read-out: Inhibition of QPCTL: IC50
T2 construct: made in house
Procedure: as §3

[4] = Raji cells, 48 h compound incubation, PathHunter SIRPαV1 reporter cells
[5] = A549 cells, 48 h compound incubation, PathHunter SIRPαV1 reporter cells

T2 sequence (Q9NXS2 whole entry): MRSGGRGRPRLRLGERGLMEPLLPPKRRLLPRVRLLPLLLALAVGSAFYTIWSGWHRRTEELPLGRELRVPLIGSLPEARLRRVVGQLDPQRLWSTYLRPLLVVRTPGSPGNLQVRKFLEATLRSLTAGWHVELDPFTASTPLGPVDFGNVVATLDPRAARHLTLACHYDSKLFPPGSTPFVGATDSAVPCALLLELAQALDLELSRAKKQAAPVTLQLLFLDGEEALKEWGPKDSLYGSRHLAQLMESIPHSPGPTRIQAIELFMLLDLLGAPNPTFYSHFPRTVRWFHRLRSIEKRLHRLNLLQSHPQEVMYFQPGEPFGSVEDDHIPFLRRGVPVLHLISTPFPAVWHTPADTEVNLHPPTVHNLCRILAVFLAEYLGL
T1 sequence (Q16769 29-361): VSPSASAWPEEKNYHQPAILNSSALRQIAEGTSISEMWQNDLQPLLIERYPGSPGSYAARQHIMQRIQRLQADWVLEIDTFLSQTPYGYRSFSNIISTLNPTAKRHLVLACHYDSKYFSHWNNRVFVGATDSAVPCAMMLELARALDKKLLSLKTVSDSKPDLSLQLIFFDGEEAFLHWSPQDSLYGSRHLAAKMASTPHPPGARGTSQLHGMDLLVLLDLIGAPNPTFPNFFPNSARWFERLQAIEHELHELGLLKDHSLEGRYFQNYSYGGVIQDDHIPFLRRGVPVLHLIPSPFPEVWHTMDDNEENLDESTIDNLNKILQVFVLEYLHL

Structure (SMILES) | efflux ratio at 2 h [1] | Papp A→B at 2 h [1] | IC50 [2, 4] | IC50 (QPCT) | IC50 [3, 5] | IC50 (QPCTL) | IC50 ([2]; Raji, 48 h) | IC50 ([3]; A549, 48 h)
Cn1cnnc1[C@@H]1CCN(c2c(C#N)cc(C(F)(F)F)nc2-c2ccc(F)nc2)[C@@H](C2CC2)C1 (racemic) [Example 2, (rac)-3-[trans-2-cyclopropyl-4-(4-methyl-4H-1,2,4-triazol-3-yl)piperidin-1-yl]-6′-fluoro-6-(trifluoromethyl)-[2,3′-bipyridine]-4-carbonitrile] | 6.1 | 13 ×10⁻⁶ cm/s | 66 nM | 2 nM | 41 nM | 2 nM |  | 
Cn1cnnc1[C@@H]1CCN(c2c(C#N)cc(C(F)(F)F)nc2-c2cnc3nn(C(C)(C)C)cc3c2)[C@@H](C2CC2)C1 (racemic) [Example 3] | 39.1 | 1.1 ×10⁻⁶ cm/s | 11 nM | 1 nM | 11 nM | 1 nM |  | 
C[C@@H]1C[C@H](c2nncn2C)CCN1c1c(C#N)ccnc1-c1ccc(F)nc1 (racemic) [Example 11] |  |  | 89 nM | 27 nM |  | 3 nM |  | 
Cn1cnnc1C1CCN(c2c(C#N)cc(C(F)(F)F)nc2-c2ccc(F)nc2)C2(CC2)C1 (racemic) [Example 17] | 10.4 | 5.1 ×10⁻⁶ cm/s | 246 nM | 13 nM | 86 nM | 3 nM |  | 
Cn1cnnc1[C@@H]1CCN(c2c(C#N)cc(C(F)(F)F)nc2-c2ccc(F)nc2)[C@@H](C2CC2)C1 [Example 1, 3-[(2R,4R)-2-cyclopropyl-4-(4-methyl-4H-1,2,4-triazol-3-yl)piperidin-1-yl]-6′-fluoro-6-(trifluoromethyl)-[2,3′-bipyridine]-4-carbonitrile] | 4.4 | 17 ×10⁻⁶ cm/s | 27 nM | 2 nM | 27 nM | 1 nM |  | 
Cc1cnnn1C1CCN(c2ncccc2-c2ccc(F)nc2)CC1 [Example 3] | 0.8 | 93 ×10⁻⁶ cm/s | 2740 nM | 482 nM | 921 nM | 52 nM |  | 
C[C@H]1C[C@H](c2nncn2C)CCN1c1c(C#N)cc(C(F)(F)F)nc1-c1ccc(F)nc1 [Example 4, 6′-fluoro-3-[(2S,4R)-2-methyl-4-(4-methyl-4H-1,2,4-triazol-3-yl)piperidin-1-yl]-6-(trifluoromethyl)-[2,3′-bipyridine]-4-carbonitrile] | 4.6 | 15 ×10⁻⁶ cm/s | 925 nM | 74 nM |  | 6 nM |  | 
C[C@H]1C[C@H](c2nncn2C)CCN1c1c(C#N)ccnc1-c1ccc(F)nc1 [Example 5, 6′-fluoro-3-[(2S,4R)-2-methyl-4-(4-methyl-4H-1,2,4-triazol-3-yl)piperidin-1-yl]-[2,3′-bipyridine]-4-carbonitrile] | 5 | 3.6 ×10⁻⁶ cm/s | 48 nM | 2 nM | 57 nM | 1 nM |  | 
C[C@H]1C[C@H](c2nncn2C)CCN1c1c(C#N)ccnc1-c1ccnnc1 [Example 6, 3-[(2S,4R)-2-methyl-4-(4-methyl-4H-1,2,4-triazol-3-yl)piperidin-1-yl]-2-(pyridazin-4-yl)pyridine-4-carbonitrile] | 8.4 | 0.2 ×10⁻⁶ cm/s | 540 nM | 3 nM | 551 nM | 2 nM |  | 
Cn1cnnc1[C@@H]1CCN(c2c(C#N)cc(C(F)(F)F)nc2-c2cnc3nn(C(C)(C)C)cc3c2)[C@H](C2CC2)C1 [Example 7, 2-{2-tert-butyl-2H-pyrazolo[3,4-b]pyridin-5-yl}-3-[(2S,4R)-2-cyclopropyl-4-(4-methyl-4H-1,2,4-triazol-3-yl)piperidin-1-yl]-6-(trifluoromethyl)pyridine-4-carbonitrile] | 23.5 | 2 ×10⁻⁶ cm/s | 9 nM | 1 nM | 12 nM | 1 nM |  | 
Cn1cnnc1[C@@H]1CCN(c2c(C#N)cc(C(F)(F)F)nc2-c2ccc(F)nc2)[C@H](C2CC2)C1 [Example 8] | 3.3 | 22 ×10⁻⁶ cm/s | 47 nM | 6 nM | 47 nM | 1 nM |  | 
CC[C@@H]1C[C@H](c2nncn2C)CCN1c1c(C#N)cc(C(F)(F)F)nc1-c1ccc(F)nc1 [Example 9] | 3.8 | 22 ×10⁻⁶ cm/s | 325 nM | 50 nM | 109 nM | 18 nM |  | 
C[C@@H]1C[C@H](c2nncn2C)CCN1c1c(C#N)cc(C(F)(F)F)nc1-c1ccc(F)nc1 [Example 10, 6′-fluoro-3-[(2R,4R)-2-methyl-4-(4-methyl-4H-1,2,4-triazol-3-yl)piperidin-1-yl]-6-(trifluoromethyl)-[2,3′-bipyridine]-4-carbonitrile] | 5.8 | 7.8 ×10⁻⁶ cm/s | 1100 nM | 23 nM | 111 nM | 10 nM |  | 
C[C@@H]1C[C@](F)(c2nncn2C)CCN1c1c(C#N)ccnc1-c1ccc(F)nc1 [Example 13] | 2.4 | 22 ×10⁻⁶ cm/s | 301 nM | 14 nM | 236 nM | 6 nM |  | 
C[C@@H]1C[C@](F)(c2nncn2C)CCN1c1c(C#N)cc(C(F)(F)F)nc1-c1ccc(F)nc1 [Example 14] | 1.2 | 58 ×10⁻⁶ cm/s | 621 nM | 24 nM | 232 nM | 16 nM |  | 
C[C@@H]1C[C@](F)(c2nncn2C)CCN1c1c(C#N)cc(C(F)(F)F)nc1-c1ccnnc1 [Example 15] | 9.4 | 3.3 ×10⁻⁶ cm/s | 837 nM | 24 nM | 486 nM | 14 nM |  | 
C[C@@H]1C[C@](F)(c2nncn2C)CCN1c1c(C#N)cc(C(F)(F)F)nc1-c1cnc2nn(C(C)(C)C)cc2c1 [Example 16] | 7.1 | 9.2 ×10⁻⁶ cm/s | 124 nM | 5 nM | 74 nM | 7 nM |  | 
Cn1cnnc1C1CCN(c2ncccc2-c2ccc(F)nc2)CC1 [SEN177, reference compound] |  |  |  |  |  |  | 1360 nM | 214 nM
